# Assay results published in patent US6818407B2, “Anti-endotoxic antimicrobial cationic peptides and methods of use therfor” (priority 1998, dated 2004).
# Tests used:
# E. coli [1] = assay: MIC, broth microdilution assay in polypropylene microtiter trays; type: cell-based; conditions: average of three separate experiments
# Procedure, shortened: (§1)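 Read-out: OD. MIC = lowest peptide conc. giving no OD change over the defined time.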
# P. aeruginosa = assay: as above; type: cell-based; conditions: average of three separate experiments
# Procedure, shortened: as §1
# S. aureus K147 = assay: as above; type: cell-based; conditions: average of three separate experiments
# Procedure, shortened: as §1
# S. aureus = assay: as above; type: cell-based; conditions: average of three separate experiments
# Procedure, shortened: as §1
# [2] = system: mutant (Nal B, H744) of P. aeruginosa; assay: microbe, parasite or virus in culture; type: cell-based; conditions: for (B) MIC of Cipro when combined with peptide: ciprofloxacin with peptide at concentration (A); for (B) MIC of Cipro when combined with peptide / FIC index / (A) Peptide doses together with Cipro: Nal B, H744; for FIC index: peptide + ciprofloxacin; for MIC A MIC of Peptides: peptide alone, P. aeruginosa mutant Nal B, H744 (Table 5); for (A) Peptide doses together with Cipro: peptide concentration in combination with ciprofloxacin
# Procedure, shortened: (§2)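 Checkerboard titration in Mueller Hinton broth, peptide against carbenicillin or ciprofloxacin, inoculum 10 μl of 10^−4 dilution of overnight culture, 18-24 h at 37 °C. Combination MIC is the lowest concentration reducing growth >50%. FIC index = A/MIC A + B/MIC B, with ≤~0.5 synergy, 1.0 additivity, >1.0 antagonism.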
# [3] = system: β-lactamase derepressed mutant (H547) of P. aeruginosa; assay: microbe, parasite or virus in culture; type: cell-based; conditions: P. aeruginosa H547; for (B) MIC of Carb when combined with peptide: Carbenicillin with peptide at concentration (A); for MIC A MIC of Peptides: peptide alone; for (A) Peptide doses together with Carb: peptide concentration in combination with Carbenicillin
# Procedure, shortened: as §2
# E. coli [4] = assay: Synergy study (checkerboard titration) with hen white lysozyme; type: cell-based; conditions: for Lowest [CP] showing synergy: cationic peptide concentration, combined with lysozyme; for Lowest [Lyso] showing synergy: lysozyme concentration, combined with the peptide
# P. aeruginosa (H103) = assay: as above; type: cell-based; conditions: for Lowest [CP] showing synergy: cationic peptide concentration, combined with lysozyme; for Lowest [Lyso] showing synergy: lysozyme concentration, combined with the peptide
# Salmonella typhi = assay: as above; type: cell-based; conditions: for Lowest [CP] showing synergy: cationic peptide concentration, combined with lysozyme; for Lowest [Lyso] showing synergy: lysozyme concentration, combined with the peptide
# [5] = system: Pseudomonas aeruginosa strain M2; assay: Protection of neutropenic CD-1 mice challenged with Pseudomonas aeruginosa; type: in vivo; set-up: Survival post bacterial challenge, surviving mice: reference not given here; conditions: for Survival (%) post bacterial challenge: PBS 8
# Procedure, shortened: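 Neutropenia induced by three i.p. cyclophosphamide doses ([…], alternate days); mice then infected i.p. with 200-300 organisms/mouse. Peptides (200 µg/mouse = 8 mg/kg) in buffered citrate given i.p. at 30 min (single) or 30 min and 16 hrs (double) post-challenge; PBS control; mean of 2 experiments.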
# [6] = double dose (200 μg per mouse i.p. at 30 min and 16 hrs), 16 hr
# [7] = single dose (200 μg per mouse i.p. at 30 min), 16 hr
Structure (SMILES),MIC E. coli (E. coli [1]) [µg/mL],MIC P. aeruginosa (P. aeruginosa) [µg/mL],MIC S. aureus K147 (S. aureus K147) [µg/mL],MIC S. aureus (S. aureus) [µg/mL],(B) MIC of Cipro when combined with peptide [2],FIC index [2],MIC A MIC of Peptides [2] [µg/mL],(A) Peptide doses together with Cipro [2] [µg/mL],(B) MIC of Carb when combined with peptide [3] [µg/mL],MIC A MIC of Peptides [3] [µg/mL],(A) Peptide doses together with Carb [3] [µg/mL],FIC for combination of cationic peptide and lysozyme (E. coli [4]),Lowest [CP] showing synergy (E. coli [4]) [µg/mL],Lowest [Lyso] showing synergy (E. coli [4]) [µg/mL],FIC for combination of cationic peptide and lysozyme (P. aeruginosa (H103)),Lowest [CP] showing synergy (P. aeruginosa (H103)) [µg/mL],Lowest [Lyso] showing synergy (P. aeruginosa (H103)) [µg/mL],FIC for combination of cationic peptide and lysozyme (Salmonella typhi),Lowest [CP] showing synergy (Salmonella typhi) [µg/mL],Lowest [Lyso] showing synergy (Salmonella typhi) [µg/mL],also measured
CC[C@H](C)[C@H](NC(=O)CNC(=O)[C@@H](NC(=O)[C@H](CCCCN)NC(=O)[C@H](CCCCN)NC(=O)[C@H](Cc1ccccc1)NC(=O)[C@H](CC(C)C)NC(=O)[C@H](CCCCN)NC(=O)[C@H](Cc1c[nH]c2ccccc12)NC(=O)[C@@H](N)CCCCN)[C@@H](C)CC)C(=O)NCC(=O)N[C@@H](C)C(=O)N[C@H](C(=O)N[C@@H](CC(C)C)C(=O)N[C@@H](CCCCN)C(=O)N[C@H](C(=O)N[C@@H](CC(C)C)C(=O)N[C@@H](CCCCN)C(=O)N[C@H](C(=O)N[C@@H](CC(C)C)C(=O)N[C@H](C(=O)N[C@H](C(=O)NCC(=O)N[C@@H](CC(C)C)C(=O)N1CCC[C@H]1C(=O)N[C@@H](C)C(=O)N[C@@H](CC(C)C)C(=O)N[C@@H](CCCCN)C(=O)N[C@@H](CC(C)C)C(=O)N[C@H](C(=O)N[C@@H](CC(C)C)C(=O)N[C@@H](CCCCN)C(=O)O)[C@@H](C)O)[C@@H](C)O)[C@@H](C)O)C(C)C)C(C)C)C(C)C [CM4],4,4,8,8,.125 µg/mL,.75,4,1,64,4,1,0.07,1.3,7.8,0.75,2.6,250,0.50,2.61,7.8,"Survival post bacterial challenge, surviving mice [5, 6]: 14; Survival post bacterial challenge, surviving mice ([5]; double dose, 24 hr): 14; Survival post bacterial challenge, surviving mice ([5]; double dose, 41 hr): 7; Survival post bacterial challenge, surviving mice ([5]; double dose, 48 hr): 2; Survival post bacterial challenge, surviving mice ([5]; double dose, 64 hr): 2; Survival (%) post bacterial challenge ([5]; double dose, 64 hr): 14%; Survival post bacterial challenge, surviving mice ([5]; double dose, 72 hr): 2; Survival (%) post bacterial challenge ([5]; double dose, 72 hr): 14%; Survival post bacterial challenge, surviving mice ([5]; double dose, 96 hr): 2; Survival (%) post bacterial challenge ([5]; double dose, 96 hr): 14%; Survival post bacterial challenge, surviving mice [5, 7]: 15; Survival post bacterial challenge, surviving mice ([5]; single dose, 24 hr): 15; Survival post bacterial challenge, surviving mice ([5]; single dose, 41 hr): 9; Survival post bacterial challenge, surviving mice ([5]; single dose, 48 hr): 3; Survival post bacterial challenge, surviving mice ([5]; single dose, 64 hr): 1; Survival (%) post bacterial challenge ([5]; single dose, 64 hr): 6%; Survival post bacterial challenge, surviving mice ([5]; single dose, 72 hr): 1; Survival (%) post bacterial challenge ([5]; single dose, 72 hr): 6%; Survival post bacterial challenge, surviving mice ([5]; single dose, 96 hr): 1; Survival (%) post bacterial challenge ([5]; single dose, 96 hr): 16%"
CC[C@H](C)[C@H](NC(=O)CNC(=O)[C@@H](NC(=O)[C@H](CCCCN)NC(=O)[C@H](CCCCN)NC(=O)[C@H](Cc1ccccc1)NC(=O)[C@H](CC(C)C)NC(=O)[C@H](CCCCN)NC(=O)[C@H](Cc1c[nH]c2ccccc12)NC(=O)[C@H](CC(C)C)NC(=O)[C@@H](N)CCCCN)[C@@H](C)CC)C(=O)NCC(=O)N[C@@H](C)C(=O)N[C@H](C(=O)N[C@@H](CC(C)C)C(=O)N[C@@H](CCCCN)C(=O)N[C@H](C(=O)N[C@@H](CC(C)C)C(=O)N[C@@H](CCCCN)C(=O)N[C@H](C(=O)N[C@@H](CC(C)C)C(=O)N[C@H](C(=O)N[C@H](C(=O)NCC(=O)N[C@@H](CC(C)C)C(=O)N1CCC[C@H]1C(=O)N[C@@H](C)C(=O)N[C@@H](CC(C)C)C(=O)N[C@@H](CCCCN)C(=O)N[C@@H](CC(C)C)C(=O)N[C@H](C(=O)N[C@@H](CC(C)C)C(=O)N[C@@H](CCCCN)C(=O)O)[C@@H](C)O)[C@@H](C)O)[C@@H](C)O)C(C)C)C(C)C)C(C)C [CM7],2,8,4 to 8,8,.125 µg/mL,.63,16,2,64,32,2,0.31,0.65,7.8,0.75,2.6,250,0.52,2.61,15.6,"Survival post bacterial challenge, surviving mice [5, 6]: 12; Survival post bacterial challenge, surviving mice ([5]; double dose, 24 hr): 12; Survival post bacterial challenge, surviving mice ([5]; double dose, 41 hr): 8; Survival post bacterial challenge, surviving mice ([5]; double dose, 48 hr): 6; Survival post bacterial challenge, surviving mice ([5]; double dose, 64 hr): 5; Survival (%) post bacterial challenge ([5]; double dose, 64 hr): 41%; Survival post bacterial challenge, surviving mice ([5]; double dose, 72 hr): 5; Survival (%) post bacterial challenge ([5]; double dose, 72 hr): 41%; Survival post bacterial challenge, surviving mice ([5]; double dose, 96 hr): 5; Survival (%) post bacterial challenge ([5]; double dose, 96 hr): 41%; Survival post bacterial challenge, surviving mice [5, 7]: 15; Survival post bacterial challenge, surviving mice ([5]; single dose, 24 hr): 15; Survival post bacterial challenge, surviving mice ([5]; single dose, 41 hr): 13; Survival post bacterial challenge, surviving mice ([5]; single dose, 48 hr): 13; Survival post bacterial challenge, surviving mice ([5]; single dose, 64 hr): 12; Survival (%) post bacterial challenge ([5]; single dose, 64 hr): 80%; Survival post bacterial challenge, surviving mice ([5]; single dose, 72 hr): 11; Survival (%) post bacterial challenge ([5]; single dose, 72 hr): 73%; Survival post bacterial challenge, surviving mice ([5]; single dose, 96 hr): 11; Survival (%) post bacterial challenge ([5]; single dose, 96 hr): 73%"
